# Laboratory results taken from patent US12296009B2, “Immunogenic composition for the treatment of cancer” (APGEN THERAPUETICS AB, priority 2017, dated 2025).
# Experiments:
# HLA class I = HLA class I expression on tumor cells by flow cytometry; format: cell-based, human; details: for HLA class I induction by IFNγ in combination with BETi: increasing BETi concentrations with a standard concentration of IFNγ (FIG. 5)
# Experimental: (§1) Flow cytometry was done after staining with the following antibodies: anti-human HLA-ABC APC-Cy7 (clone W6/32; Biolegend, San Diego, CA, USA), CD274 BV786 (clone MIH1; BD Biosciences, Franklin lakes, NJ, USA). All data were acquired on a Novocyte 2000 [?] flow cytometer (Acea Biosciences, San Diego, CA, USA) were analyzed using FlowJo software version 10 (Treestar).
# (§2) We show herein that treating patient-derived early-passage melanoma cell lines with JQ1 enhances recognition by autologous TIL. […] Along with this, PD-L1 and HLA class I expression were assessed by flow cytometry in pretreated tumor cells to find out whether functional observations in the tumor-TIL co-cultures would be associated with changes in PD-L1 expression or HLA class I expression, both markers being key determinants of T-cell activation upon target cell recognition.
# ROAL tumor cells = test: Co-culture of pretreated ROAL tumor cells with autologous TIL, IFNγ ELISA on supernatant; format: cell-based, human
# Experimental: (§3) Cells were subsequently trypsinized, washed and co-cultured for 24 hours with autologous tumor-infiltrating lymphocytes (TIL). Co-culture supernatants were assessed by ELISA for IFNγ levels, as a measure for tumor recognition by the TIL.
# (§4) The early-passage melanoma cell lines ANRU, ROAL and KADA were established from patients at the oncology clinic at Karolinska University Hospital (ethical permit: #2011/143-32/1) based on a published protocol.21 Mycoplasma-free (MycoAlert kit) cell lines were in their 15th to 45th passage when used in this study.
# (§5) Culture and expansion of tumor-infiltrating lymphocytes was done as published before.^4 A piece of the tumor (approximately 0.5 cm3) was minced into 1 mm3 pieces. Each piece was placed in one well of a 24-well plate containing 1 mL/well CellGro medium supplemented with 2% autologous plasma (generated by centrifugation and heat-inactivation of plasma collected on the day of surgery) and 6,000 IU/mL IL-2 (Proleukin, Novartis, Basel, Switzerland). On day 1 of culture, half of the medium volume in each well was replaced with fresh medium supplemented with plasma and IL-2. After 3-4 days of culture, lymphocytes could usually be seen emerging from the tumor piece. Cultures were monitored regularly and split before reaching confluence. After approximately 2 weeks, expanding wells were pooled and counted. […] At the end of culture, cells were harvested, pooled, characterized, counted and frozen.
# as §2
# ANRU tumor cells = test: Co-culture of pretreated ANRU tumor cells with autologous TIL, IFNγ ELISA on supernatant; format: cell-based, human; details: for Time kinetics of sensitization for recognition by TIL: ANRU pretreated 12, 24, 48 and 72 hours; for Time kinetics of sensitization for recognition by TIL / T-cell recognition by autologous TIL (IFNγ production in co-culture): 24 hours co-culture
# Experimental: Tumor cells were also co-cultured with unsorted TIL, and TIL without specificity for the aforementioned tumor antigens (designated ‘neg’).
# as §3, §4
# Culture and expansion of tumor-infiltrating lymphocytes was done as published before.^4 A piece of the tumor (approximately 0.5 cm3) was minced into 1 mm3 pieces. Each piece was placed in one well of a 24-well plate containing 1 mL/well CellGro medium supplemented with 2% autologous plasma (generated by centrifugation and heat-inactivation of plasma collected on the day of surgery) and 6,000 IU/mL IL-2 (Proleukin, Novartis, Basel, Switzerland). On day 1 of culture, half of the medium volume in each well was replaced with fresh medium supplemented with plasma and IL-2. After 3-4 days of culture, lymphocytes could usually be seen emerging from the tumor piece. Cultures were monitored regularly and split before reaching confluence. After approximately 2 weeks, expanding wells were pooled and counted. To generate large T cell numbers, TIL were cultured for approximately 14 days in presence of autologous, irradiated feeders (40 Gy, TIL:feeder ratio 1:50-1:80) with 300 IU/mL IL-2 and 30 ng/mL anti-CD3 antibody (OKT3, Cilag, Zug, Switzerland). Cells were split or medium exchanged as necessary. Cultures were initiated in standing T75 flasks, but transferred to VueLife cell culture bags 1 week before harvest. At the end of culture, cells were harvested, pooled, characterized, counted and frozen.
# as §2
# To test this, we co-cultured ANRU tumor cells for 24 hours with autologous TIL in the presence and absence of a PD-L1 blocking antibody. Suitable PD-L1 blocking antibodies are commercially available, and include anti-human CD274 (B7-H1, PD-L1) Antibody (clone 29E.2A3; Cat No. 329709; Biolegend), anti-human CD274 (B7-H1, PD-L1) Antibody (clone MIH3; Cat No. 374502; Biolegend), Anti-PD-L1 (CD274) Neutralizing Antibody (Cat No. 71213; BPS Bioscience), PD-L1/B7-H1/CD274 Blocking Antibody (clone R639; Cat No. 10084-R639; Sino Biological) and Human PD-L1/B7-H1 Antibody (Cat No. AF156; R and D Systems). Tumors cell were pretreated for 12, 24, 48 and 72 hours, to check for any PD-L1 induction or suppression over time by flow cytometry, and to define the time kinetics of JQ1-induced sensitization of tumors for recognition by TIL in a co-culture. We reasoned that recognition by autologous TIL should not be affected by PD-L1 blockade at any time point if ANRU tumor cells would be PD-L1 negative under all conditions.
# Herein, we addressed the question whether enhanced tumor recognition by autologous TIL after JQ1 treatment is directed at tumor-associated antigens or tumor-specific mutant antigens. Therefore we co-cultured ANRU cells with TIL sorted for their specifity towards either the tumor-associated antigen MART-1, or two different tumor-specific mutant antigens, designated ETV6.9 and NUP210.
# KADA tumor cells = test: Co-culture of pretreated KADA tumor cells with autologous TIL, IFNγ ELISA on supernatant; format: cell-based, human
# Experimental: as §3, §4, §5, §2
# JAK1 = JAK1 mRNA expression by RT-qPCR; format: cell-based, human; details: ANRU, ROAL and A375 cells, JQ1 by itself and in combination
# Source text: (§6) (B) mRNA expression levels, measured by RT-qPCR, in ANRU, ROAL and A375 cells of STAT1 and JAK1, two proteins crucially involved in signaling downstream of IFNγ ligation to its cognate receptor.
# [1] = system: antigen-presentation machinery (APM); test: Western blot of antigen-presentation machinery components; format: cell-based, human; details: ANRU, ROAL, KADA and A375 cells, 72 hours JQ1 and/or IFNγ; most clearly in A375
# Experimental: (§7) This was most apparent for HLA class I heavy chain, and overall was most clearly seen in A375 cells.
# (§8) To study the time kinetics of these effects, the ANRU cell line was treated in the same way for 12, 24, 48 and 72 hours. […] This was most apparent for HLA class I heavy chain, and overall was most clearly seen in A375 cells.
# STAT1 = STAT1 mRNA expression by RT-qPCR; format: cell-based, human; details: ANRU, ROAL and A375 cells, JQ1 with IFNγ
# Source text: as §6
# MYC = MYC expression by western blot; format: cell-based; details: 72 hours JQ1 alone or in combination with IFNγ
# PD-L1 = PD-L1 expression on tumor cells by flow cytometry; format: cell-based, human; details: 72 hours JQ1 and/or IFNγ
# Experimental: as §1, §2
# CD73 = CD73 expression on tumor cell lines by flow cytometry; format: cell-based; details: commercially available human tumor cell lines of various origins, 72 hours JQ1 and/or IFNγ (FIG. 7)
# [2] = system: antigen-presentation machinery (APM); test: mRNA expression of antigen-presentation machinery components by qPCR; format: cell-based, human
# Experimental: as §7
# Moreover, the presence of a HLA class I blocking antibody always fully abrogated T-cell recognition in co-cultures with pretreated tumors. […] Therefore, we studied mRNA and protein expression of well-known components of the antigen-presentation machinery (APM) after pretreatment with JQ1 alone and/or IFNγ.
# as §8
# HLA class II = HLA class II expression on tumor cells by flow cytometry; format: cell-based, human
# A375 tumor cells = test: Co-culture of pretreated A375 tumor cells with allogeneic T cells, IFNγ ELISA on supernatant; format: cell-based, human; details: A375, 72 hours JQ1 alone or in combination with IFNγ, 24 hours co-culture with allogeneic T cells
# IDO = IDO expression in tumor cells by flow cytometry; format: cell-based, human; details: early-passage melanoma cell lines, 72 hours JQ1 and/or IFNγ (FIG. 6)
# [3] = pretreatment with the substance alone
# [4] = ANRU, 72 hours pretreatment with the substance alone
# [5] = ANRU, 72 hours, IFNγ in the presence of JQ1
compound,measurement,setting,value
COc1cc2c(cc1-c1c(C)noc1C)ncc1[nH]c(=O)n([C@H](C)c3ccccn3)c12 [I-BET151],HLA class I induction by IFNγ in combination with BETi,"HLA class I; A375, 72 hours",clearly increased
same,HLA class I induction by IFNγ in combination with BETi,"HLA class I; ROAL, 72 hours",clearly increased
"IFNγ: Interferon gamma (IFNγ), a known physiological cue for sensitization of target cells for T-cell recognition",Recognition by autologous TIL (IFNγ production in co-culture),ROAL tumor cells; [3],did not sensitize the cells
same,Time kinetics of sensitization for recognition by TIL,ANRU tumor cells,did not lead to an improvement of tumor recognition
same,T-cell recognition by autologous TIL (IFNγ production in co-culture),ANRU tumor cells; [4],did not lead to any increases in T-cell recognition
same,Recognition by autologous TIL (IFNγ production in co-culture),KADA tumor cells; [3],strongly sensitized
Cc1sc2c(c1C)C(c1ccc(Cl)cc1)=N[C@@H](CC(=O)OC(C)(C)C)c1nnc(C)n1-2 [JQ1],JAK1 mRNA expression,JAK1,consistently increases JAK1 expression
same,"Protein level induction of APM components by IFNγ (TAP1, TAP2, Tapasin, HLA class I heavy chain, LMP2, LMP10)",[1],Enhanced induction of APM components by IFNγ
same,STAT1 mRNA induction by IFNγ,STAT1,strongly enhances induction of STAT1 by IFNγ
same,MYC expression,MYC,downregulated
same,PD-L1 expression,PD-L1; ANRU,wholly absent under all conditions
same,Constitutive and IFNγ-induced PD-L1 expression,PD-L1; KADA,strongly suppressed
same,PD-L1 expression,PD-L1; ROAL,marginal if not absent under all conditions
same,CD73 induction by IFNγ,CD73,suppresses CD73 induction by IFNγ
same,"mRNA induction of APM components by IFNγ, time kinetics","[2]; ANRU, 12, 24, 48 and 72 hours, 0.4 μM JQ1 and/or 25 ng/ml IFNγ",potentiated the induction of APM components by IFNγ at all time points
same,mRNA induction of APM components by IFNγ,"[2]; ANRU, ROAL, KADA and A375 cells, 72 hours JQ1 and/or IFNγ, most pronounced for HLA class I, B2M, TAP1 and TAP2",potentiated their induction by IFNγ
same,HLA class II upregulation by IFNγ,HLA class II; [5],upregulation of HLA class II was actually suppressed
same,Constitutive and IFNγ-induced HLA class II expression,"HLA class II; early-passage melanoma cell lines, 72 hours JQ1 and/or IFNγ (FIG. 6)",clearly suppressed
same,Recognition by autologous TIL (IFNγ production in co-culture),ROAL tumor cells; pretreatment with combination of JQ1 and IFNγ,significantly better and synergistically recognize
same,Recognition by autologous TIL (IFNγ production in co-culture),ROAL tumor cells; [3],did not sensitize
same,Effect of PD-L1 blocking antibody on recognition of pretreated tumor cells by TIL,"ANRU tumor cells; ANRU pretreated 12, 24, 48 and 72 hours with JQ1 and/or IFNγ, 24 hours co-culture with or without PD-L1 blocking antibody",no effect of PD-L1 blockade was seen
same,Time kinetics of sensitization for recognition by TIL,ANRU tumor cells,most prominent after pretreatment with JQ1 alone for 72 hours
same,"Recognition by TIL sorted for MART-1, ETV6.9 and NUP210 specificity (IFNγ in co-culture supernatant)","ANRU tumor cells; ANRU, 0.4 μM JQ1 for 72 hours",improved recognition by all three TIL populations
same,T-cell recognition by autologous TIL (IFNγ production in co-culture),"ANRU tumor cells; ANRU, 72 hours pretreatment with JQ1 in combination with IFNγ",did not lead to any increases in T-cell recognition
same,T-cell recognition by autologous TIL (IFNγ production in co-culture),ANRU tumor cells; [4],dose-dependent increase in T-cell recognition
same,T-cell recognition (IFNγ levels in co-culture supernatants) compared to DMSO-treated tumor cells,A375 tumor cells,strongly and significantly enhanced
same,IFNγ-induced IDO expression,IDO,suppresses IFNγ-induced IDO expression
same,Recognition by autologous TIL (IFNγ production in co-culture),"KADA tumor cells; pretreatment with combination of IFNγ and JQ1, versus IFNγ",led to a reduction in tumor cell recognition
same,Recognition by autologous TIL (IFNγ production in co-culture),KADA tumor cells; [3],did not sensitize
same,HLA class I induction by IFNγ,"HLA class I; A375, 72 hours, IFNγ in the presence of JQ1 (FIG. 1)",enhances HLA class I induction by IFNγ
same,HLA class I induction by IFNγ in combination with BETi,"HLA class I; A375, 72 hours",clear dose-dependent enhancement of HLA class I induction by IFNγ
same,HLA class I induction by IFNγ,"HLA class I; A549 (lung carcinoma), 72 hours JQ1 and/or IFNγ",enhances HLA class I induction by IFNγ
same,HLA class I induction by IFNγ,HLA class I; [5],consistent enhancement of HLA class I induction by IFNγ
same,HLA class I induction by IFNγ,"HLA class I; HCT116 (colon carcinoma), 72 hours JQ1 and/or IFNγ",enhances HLA class I induction by IFNγ
same,HLA class I induction by IFNγ,"HLA class I; HeLa (cervical carcinoma), 72 hours JQ1 and/or IFNγ",enhances HLA class I induction by IFNγ
same,HLA class I induction by IFNγ,"HLA class I; KADA, 72 hours, IFNγ in the presence of JQ1",reduced HLA class I induction by IFNγ
same,HLA class I induction by IFNγ,"HLA class I; ROAL, 72 hours, IFNγ in the presence of JQ1",significantly more strongly induced by IFNγ
same,HLA class I induction by IFNγ in combination with BETi,"HLA class I; ROAL, 72 hours",clear dose-dependent enhancement of HLA class I induction by IFNγ
CCNC(=O)C[C@@H]1N=C(c2ccc(Cl)cc2)c2cc(OC)ccc2-n2c(C)nnc21 [I-BET762],HLA class I induction by IFNγ in combination with BETi,"HLA class I; A375, 72 hours",clearly increased
same,HLA class I induction by IFNγ in combination with BETi,"HLA class I; ROAL, 72 hours",clearly increased
